ChEMBL document CHEMBL3751764, “Synthesis and in vitro antiproliferative activity of novel pyrazolo[3,4-d]pyrimidine derivatives” (Medchemcomm, 2015)

Key:
Assay type in all cases: functional
[1] = test system: NCI-H23; test: Cytotoxicity against human NCI-H23 cells after 72 hrs by SRB assay; settings: NCI-H23, 72 h
[2] = test system: NCI-H322M; test: Cytotoxicity against human NCI-H322M cells assessed as cell growth at 10 uM after 72 hrs by SRB assay relative to control; settings: read-out: Activity
[3] = test system: A549; test: Cytotoxicity against human A549 cells assessed as cell growth at 10 uM after 72 hrs by SRB assay relative to control; settings: A549, 72 h, read-out: Activity
[4] = test system: MDA-MB-468; test: Cytotoxicity against human MDA-MB-468 cells assessed as cell growth at 10 uM after 72 hrs by SRB assay relative to control; settings: MDA-MB-468, 72 h, read-out: Activity
[5] = test system: NCI-H226; test: Cytotoxicity against human NCI-H226 cells assessed as cell growth at 10 uM after 72 hrs by SRB assay relative to control; settings: NCI-H226, 72 h, read-out: Activity
[6] = Cytotoxicity against human HOP92 cells assessed as cell growth at 10 uM after 72 hrs by SRB assay relative to control; settings: HOP-92, 72 h, read-out: Activity
[7] = Cytotoxicity against human SF539 cells after 72 hrs by SRB assay; settings: SF-539, 72 h
[8] = test system: CCRF-CEM; test: Cytotoxicity against human CCRF-CEM cells assessed as cell growth at 10 uM after 72 hrs by SRB assay relative to control; settings: read-out: Activity
[9] = test system: ACHN; test: Cytotoxicity against human ACHN cells assessed as cell growth at 10 uM after 72 hrs by SRB assay relative to control; settings: read-out: Activity
[10] = Cytotoxicity against human OVCAR3 cells after 72 hrs by SRB assay; settings: OVCAR-3, 72 h
[11] = test system: U-251; test: Cytotoxicity against human U251 cells assessed as cell growth at 10 uM after 72 hrs by SRB assay relative to control; settings: U-251, 72 h, read-out: Activity
[12] = Cytotoxicity against human HCT15 cells assessed as cell growth at 10 uM after 72 hrs by SRB assay relative to control; settings: HCT-15, 72 h, read-out: Activity
[13] = Cytotoxicity against human IGROV1 cells after 72 hrs by SRB assay; settings: IGROV-1, 72 h
[14] = test system: MDA-MB-435; test: Cytotoxicity against human MDA-MB-435 cells after 72 hrs by SRB assay; settings: MDA-MB-435, 72 h
[15] = Cytotoxicity against human SNB75 cells after 72 hrs by SRB assay; settings: SNB-75, 72 h
[16] = Cytotoxicity against human UO31 cells assessed as cell growth at 10 uM after 72 hrs by SRB assay relative to control; settings: UO-31, 72 h, read-out: Activity
[17] = Cytotoxicity against human SNB19 cells assessed as cell growth at 10 uM after 72 hrs by SRB assay relative to control; settings: SNB-19, 72 h, read-out: Activity
[18] = Cytotoxicity against human HOP92 cells after 72 hrs by SRB assay; settings: HOP-92, 72 h
[19] = test system: KM12; test: Cytotoxicity against human KM12 cells assessed as cell growth at 10 uM after 72 hrs by SRB assay relative to control; settings: KM12, 72 h, read-out: Activity
[20] = test system: K562; test: Cytotoxicity against human K562 cells assessed as cell growth at 10 uM after 72 hrs by SRB assay relative to control; settings: K562, 72 h, read-out: Activity
[21] = test system: Malme-3M; test: Cytotoxicity against human MALME-3M cells assessed as cell growth at 10 uM after 72 hrs by SRB assay relative to control; settings: read-out: Activity
[22] = Cytotoxicity against human SKOV3 cells assessed as cell growth at 10 uM after 72 hrs by SRB assay relative to control; settings: SK-OV-3, 72 h, read-out: Activity
[23] = test system: MDA-MB-468; test: Cytotoxicity against human MDA-MB-468 cells after 72 hrs by SRB assay; settings: MDA-MB-468, 72 h
[24] = test system: SK-MEL-2; test: Cytotoxicity against human SK-MEL-2 cells after 72 hrs by SRB assay; settings: SK-MEL-2, 72 h
[25] = test system: SK-MEL-5; test: Cytotoxicity against human SK-MEL-5 cells assessed as cell growth at 10 uM after 72 hrs by SRB assay relative to control; settings: SK-MEL-5, 72 h, read-out: Activity
[26] = Cytotoxicity against human Hs 578T cells assessed as cell growth at 10 uM after 72 hrs by SRB assay relative to control; settings: read-out: Activity
[27] = Cytotoxicity against human SF295 cells assessed as cell growth at 10 uM after 72 hrs by SRB assay relative to control; settings: SF-295, 72 h, read-out: Activity
[28] = test system: A549; test: Upregulation of p27kip1 expression in human A549 cells by Western blotting analysis
[29] = Cytotoxicity against human LOXIMVI cells after 72 hrs by SRB assay; settings: LOX IMVI
[30] = Cytotoxicity against human SNB19 cells after 72 hrs by SRB assay; settings: SNB-19, 72 h
[31] = Cytotoxicity against human NCI-ADR-RES cells assessed as cell growth at 10 uM after 72 hrs by SRB assay relative to control; settings: read-out: Activity
[32] = Cytotoxicity against human MOLT4 cells assessed as cell growth at 10 uM after 72 hrs by SRB assay relative to control; settings: MOLT-4, 72 h, read-out: Activity
[33] = test system: MDA-MB-231; test: Cytotoxicity against human MDA-MB-231 cells after 72 hrs by SRB assay; settings: MDA-MB-231, 72 h
[34] = Cytotoxicity against human Caki1 cells assessed as cell growth at 10 uM after 72 hrs by SRB assay relative to control; settings: CAKI-1, 72 h, read-out: Activity
[35] = test system: A498; test: Cytotoxicity against human A498 cells assessed as cell growth at 10 uM after 72 hrs by SRB assay relative to control; settings: A498, 72 h, read-out: Activity
[36] = Cytotoxicity against human OVCAR8 cells after 72 hrs by SRB assay; settings: OVCAR-8, 72 h
[37] = read-out: LC50 (the source's name)

## O=C(NC1CCCCC1)c1ccc(Nc2ncnc3c2cnn3-c2ccccc2)cc1
[1]
  GI50: 10.9 µM
  TGI: 89.9 µM
[1]; [37]
  CC50: > 100 µM
[2]
  growth at 10 µM: 64%
[3]
  growth at 10 µM: 16.6%
[4]
  growth at 10 µM: 76.1%
[5]
  growth at 10 µM: 19.1%
[6]
  growth at 10 µM: 37.7%
[7]
  GI50: 3.81 µM
  TGI: 17.1 µM
[7]; [37]
  CC50: 49 µM
[8]
  growth at 10 µM: 64.9%
[9]
  growth at 10 µM: 54.3%
[10]
  GI50: 14.3 µM
  TGI: > 100 µM
[10]; [37]
  CC50: > 100 µM
[11]
  growth at 10 µM: 40.2%
[12]
  growth at 10 µM: 66.6%
[13]
  GI50: 14.4 µM
  TGI: 65.9 µM
[13]; [37]
  CC50: > 100 µM
[14]
  GI50: 67.8 µM
  TGI: > 100 µM
[14]; [37]
  CC50: > 100 µM
[15]
  GI50: 1.71 µM
  TGI: 5.4 µM
[15]; [37]
  CC50: 35.9 µM
[16]
  growth at 10 µM: 57.7%
[17]
  growth at 10 µM: 48.7%
[18]
  GI50: 2.53 µM
  TGI: 8.29 µM
[18]; [37]
  CC50: 86.6 µM
[19]
  growth at 10 µM: 88.5%
[20]
  growth at 10 µM: 73.2%
[21]
  growth at 10 µM: 2.93%
[22]
  growth at 10 µM: 54%
[23]
  GI50: 21.7 µM
  TGI: > 100 µM
[23]; [37]
  CC50: > 100 µM
[24]
  GI50: 13.6 µM
  TGI: 36.2 µM
[24]; [37]
  CC50: 96.3 µM
[25]
  growth at 10 µM: 75.4%
[26]
  growth at 10 µM: 0.22%
[27]
  growth at 10 µM: 73.4%
[28]
  fold change (FC): 3
[29]
  GI50: 4.49 µM
  TGI: 22.3 µM
[29]; [37]
  CC50: > 100 µM
[30]
  GI50: 3.82 µM
  TGI: 18.9 µM
[30]; [37]
  CC50: > 100 µM
[31]
  growth at 10 µM: 74.2%
[32]
  growth at 10 µM: 89.5%
[33]
  GI50: 5.09 µM
  TGI: 21.9 µM
[33]; [37]
  CC50: 80.6 µM
[34]
  growth at 10 µM: 62.3%
[35]
  growth at 10 µM: 50.4%
[36]
  GI50: 3.87 µM
  TGI: 19.3 µM
[36]; [37]
  CC50: > 100 µM

## O=c1sc2cc(Nc3ncnc4c3cnn4-c3ccccc3)ccc2n1Cc1ccc(Cl)cc1
[2]
  growth at 10 µM: 75.7%
[3]
  growth at 10 µM: 78%
[4]
  growth at 10 µM: 65.9%
[5]
  growth at 10 µM: 71.4%
[6]
  growth at 10 µM: 64.4%
[8]
  growth at 10 µM: 63.6%
[9]
  growth at 10 µM: 74.6%
[11]
  growth at 10 µM: 96.6%
[12]
  growth at 10 µM: 86.5%
[16]
  growth at 10 µM: 50.7%
[17]
  growth at 10 µM: 85.6%
[19]
  growth at 10 µM: 71.6%
[20]
  growth at 10 µM: 49.6%
[21]
  growth at 10 µM: 86.4%
[22]
  growth at 10 µM: 101%
[25]
  growth at 10 µM: 87.2%
[26]
  growth at 10 µM: 81.1%
[27]
  growth at 10 µM: 87.2%
[31]
  growth at 10 µM: 84.8%
[32]
  growth at 10 µM: 58.6%
[34]
  growth at 10 µM: 71.6%
[35]
  growth at 10 µM: 59%
